Measurements as given in patent US9657273B2, “Method for suppressing teratoma formation via selective cell death induction in undifferentiated human-induced pluripotent stem cells” (Industry-University Cooperation Foundation Sogang University, priority 2012, dated 2017).
Entries after “also recorded” stand apart in the source; their conditions may differ.

Assays:
[1] = system: undifferentiated induced pluripotent stem cells; assay: Selective cell death of undifferentiated induced pluripotent stem cells (summary statement); type: cell-based, human; conditions: treatment of induced pluripotent stem cells; differentiated cells not affected
From the text: The present inventors have made intensive efforts to develop a method for obtaining pure differentiated cells from induced pluripotent stem cells, and in particular, a method for obtaining only the pure differentiated cells by removing the possibility of a tumor formation by the undifferentiated induced pluripotent stem cells causing teratoma formation.

[2] = system: mixed cell population of human induced pluripotent stem cells-smooth muscle cells; assay: Cleaved caspase-3 immunostaining in 1:1 mixed iPS / iPS-derived smooth muscle cell culture; type: cell-based; conditions: 50 μM quercetin, 24 hours; 1:1 mixture of iPS and iPS-derived SMC
Method: The scale bar denotes 100 μm. […] In order to confirm the functions of smooth muscle cells differentiated-derived from human induced pluripotent stem cells, the population, which was cultured by mixing human induced pluripotent stem cells and the smooth muscle cells differentiated-derived from the human induced pluripotent stem cells in a 1:1 ratio, was treated with 50 μM quercetin for 24 hours, and examined the cleavage type caspase-3 positive population in the population of SMA-positive population or SSEA-4-positive population.

[3] = system: human induced pluripotent stem cells (iPS); assay: Apoptosis-specific cell phenotype observed under microscope; type: cell-based
Method: Human induced pluripotent stem cells (iPS) derived from human aortic smooth muscle cells (HASMC) was subcultured in an ESC medium (DMEM/F/12 supplemented with a 20% KnockOutTM serum replacement, 0.1% gentamycin, 1% non-essential amino acids, 0.1% β-mercaptoethanol and 4 ng/ml bFGF) containing mouse embryonic fibroblasts (MEF) treated with mitomycin-C as supporting cells Lee, T. H., et al., (2010). Functional recapitulation of smooth muscle cells via induced pluripotent stem cells from human aortic smooth muscle cells. Circ Res 106, 120-128). For the pretreatment of quercetin and YM-155 of the present invention, iPS was cultured in a matrigel-coated 60 mm dish containing […]1 medium (29106, Stem Cell Technology) to induce them into smooth muscle cells (SMC). Human aortic smooth muscle cells (HASMC) and human induced pluripotent stem cells-derived differentiated cells, i.e., human induced pluripotent stem cells-derived smooth muscle cells (iPS-SMC) were cultured in an SMCM medium (ScienCell research laboratories, cat #1101) as described in the reference (Lee et al., 2010). In order to confirm the selective apoptosis of undifferentiated human induced pluripotent stem cells by quercetin, human induced pluripotent stem cells (iPS) derived from human aortic smooth muscle cells (HASMC), HASMC, smooth muscle cell no. 1 differentiated-derived from iPS (iPS-SMC-1), and smooth muscle cell no. […]

[4] = system: human induced pluripotent stem cells (iPS); assay: Immunoblotting of apoptosis marker proteins in cell lysate; type: cell-based; conditions: 50 μM quercetin, 24 hours
From the text: The antibodies used in the immunoblotting assay and anti-PARP1 (SC-7150) and anti-β-actin (SC-47778) were purchased from Santa Cruz Biotech Inc. (CA, USA). Additionally, anti-caspase-9 (Cat#9502) and anti-cleaved caspase-3 (Cat#9661) purchased from Cell Signaling Technology (Danvers, Mass., USA). In order to confirm the selective apoptosis of undifferentiated human induced pluripotent stem cells by quercetin, human induced pluripotent stem cells (iPS) derived from human aortic smooth muscle cells (HASMC), HASMC, smooth muscle cell no. 1 differentiated-derived from iPS (iPS-SMC-1), and smooth muscle cell no.

iPS-SMC1 and iPS-SMC3 = assay: Measurement of intracellular calcium (Fura-2) after ATP or 75 mM K+; type: cell-based, human; conditions: 50 μM quercetin, 24 hours, then ATP or 75 mM potassium solution
Method: In order to confirm the functions of the differentiated cells which were completely differentiated into smooth muscle cells, an intracellular calcium reaction was used. As described in the reference article (Lee et al., 2006), intracellular or extracellular calcium transients were induced using pharmacological reagents, ATP or 75 mM K^+ solution, and the values were numerized in fluorescence using a calcium indicator Fura-2 (Molecular Probes, Eugene, Oreg.), and imaged.

HASMC and iPS-SMC3 = assay: α-SMA expression by immunofluorescence; type: cell-based, human; conditions: 50 μM quercetin, 24 hours
Method: Human aortic smooth muscle cells (HASMC) and human induced pluripotent stem cells-derived differentiated cells, i.e., human induced pluripotent stem cells-derived smooth muscle cells (iPS-SMC) were cultured in an SMCM medium (ScienCell research laboratories, cat #1101) as described in the reference (Lee et al., 2010). As the first antibody used in IFA was anti-α-smooth muscle actin (α-SMA) (Dako Inc, Carpinteria, Calif.). Images were obtained using Axioscope A1 microscope (Carl Zeiss) and analyzed.

O=c1c(O)c(-c2ccc(O)c(O)c2)oc2cc(O)cc(O)c12 [quercetin, 2-(3,4-dihydroxyphenyl)-3,5,7-trihydroxy-4H-chromen-4-one]
selective killing of undifferentiated induced pluripotent stem cells [1]: only the undifferentiated induced pluripotent stem cells were effectively and selectively killed
cleavage type caspase-3 positive population in SSEA-4-positive vs SMA-positive population [2]: excellent cleavage type caspase-3 positive population within the SSEA-4 positive population
apoptosis-specific phenotypic cell type ([3]; 50 μM quercetin, 24 hours, iPS vs HASMC, iPS-SMC-1, iPS-SMC-3): exhibited a distinct apoptosis-specific cell phenotype; also recorded: distinctive apoptosis-specific phenotypic cell type was discovered
degree of apoptosis (apoptosis-specific phenotypic cell type) at various concentrations ([3]; various concentrations of quercetin (QC), iPS): concentration-dependent
apoptosis marker proteins: cleavage of Parp-1, cleaved caspase-3 and caspase-9 [4]: exhibited the expression of Parp-1 cleavage (T type), cleavage types of caspase-3 and caspase-9
intracellular calcium response (function as smooth muscle cells) (iPS-SMC1 and iPS-SMC3): confirmed the functions as smooth muscle cells
expression of α-SMA (immunofluorescence) (HASMC and iPS-SMC3): the expression of α-SMA was confirmed
